This note sets out measurements from ChEMBL document CHEMBL1201862, “PubChem BioAssay data set” (2004).

Broadly, the AC50 is the midpoint of the concentration-response curve, whichever way the signal moves. For orientation: Ki means the equilibrium dissociation constant of an inhibitor or competing ligand from its target.

The target of experiment [1] is FAD-linked sulfhydryl oxidase ALR (Homo sapiens, UniProt P55789). Kind of experiment: ALR-catalysed DTT oxidation blockers – biochemical, H2O2 detection, luminescence, cherry-pick, dose response (AID 493248).
Experiment [2] has as its target T1, Methionyl-tRNA synthetase, putative (Trypanosoma brucei brucei, UniProt Q38C91).
T1 sequence (Q38C91 whole entry): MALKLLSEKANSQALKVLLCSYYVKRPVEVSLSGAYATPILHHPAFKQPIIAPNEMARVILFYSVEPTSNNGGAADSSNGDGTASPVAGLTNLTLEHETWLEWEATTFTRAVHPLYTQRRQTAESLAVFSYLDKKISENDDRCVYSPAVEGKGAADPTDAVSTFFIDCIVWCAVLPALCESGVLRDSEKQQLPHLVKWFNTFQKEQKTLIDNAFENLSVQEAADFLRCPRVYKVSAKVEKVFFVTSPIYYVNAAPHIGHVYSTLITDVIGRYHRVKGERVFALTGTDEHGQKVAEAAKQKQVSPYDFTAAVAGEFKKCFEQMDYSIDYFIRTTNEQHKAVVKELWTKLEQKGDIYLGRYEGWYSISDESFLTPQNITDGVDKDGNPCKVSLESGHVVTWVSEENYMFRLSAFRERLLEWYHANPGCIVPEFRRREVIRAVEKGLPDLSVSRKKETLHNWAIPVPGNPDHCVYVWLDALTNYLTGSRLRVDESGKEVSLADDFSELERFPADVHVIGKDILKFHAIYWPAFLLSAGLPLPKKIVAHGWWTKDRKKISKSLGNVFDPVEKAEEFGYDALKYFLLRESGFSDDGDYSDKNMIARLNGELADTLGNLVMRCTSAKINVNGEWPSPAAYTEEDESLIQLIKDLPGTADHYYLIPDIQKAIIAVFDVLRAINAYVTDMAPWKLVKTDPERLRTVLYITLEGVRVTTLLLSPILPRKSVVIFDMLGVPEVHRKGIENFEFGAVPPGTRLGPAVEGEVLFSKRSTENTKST
The experiment is classed as functional, Trypanosoma brucei brucei strain 927/4 GUTat10.1.

Experiment [3] is described as follows: Counterscreen for inhibitors of Trypanosoma brucei methionyl tRNA synthetase (MetRS): Luminescence-based cell-based high throughput dose response assay to identify compounds that are cytotoxic to Jurkat human T lymphocyte cells. The experiment is classed as functional. (In general: The purpose of a counterscreen is to sort out artefacts and off-target activity.)

Experiment [4] addresses T1, Methionyl-tRNA synthetase, putative. The experiment is classed as functional, Trypanosoma brucei brucei strain 927/4 GUTat10.1. This is another data set of the same source.
Experiment [5] can be described thus: Late stage counterscreen for inhibitors of Trypanosoma brucei methionyl tRNA synthetase (MetRS): Luminescence-based cell-based high throughput dose response assay to identify compounds that are cytotoxic to Jurkat human T lymphocyte cells. The experiment is classed as functional.
Experiment [6] deals with T2, Rac GTPase-activating protein 1 (Homo sapiens, UniProt Q9H0H5).
T2 sequence (Q9H0H5 whole entry): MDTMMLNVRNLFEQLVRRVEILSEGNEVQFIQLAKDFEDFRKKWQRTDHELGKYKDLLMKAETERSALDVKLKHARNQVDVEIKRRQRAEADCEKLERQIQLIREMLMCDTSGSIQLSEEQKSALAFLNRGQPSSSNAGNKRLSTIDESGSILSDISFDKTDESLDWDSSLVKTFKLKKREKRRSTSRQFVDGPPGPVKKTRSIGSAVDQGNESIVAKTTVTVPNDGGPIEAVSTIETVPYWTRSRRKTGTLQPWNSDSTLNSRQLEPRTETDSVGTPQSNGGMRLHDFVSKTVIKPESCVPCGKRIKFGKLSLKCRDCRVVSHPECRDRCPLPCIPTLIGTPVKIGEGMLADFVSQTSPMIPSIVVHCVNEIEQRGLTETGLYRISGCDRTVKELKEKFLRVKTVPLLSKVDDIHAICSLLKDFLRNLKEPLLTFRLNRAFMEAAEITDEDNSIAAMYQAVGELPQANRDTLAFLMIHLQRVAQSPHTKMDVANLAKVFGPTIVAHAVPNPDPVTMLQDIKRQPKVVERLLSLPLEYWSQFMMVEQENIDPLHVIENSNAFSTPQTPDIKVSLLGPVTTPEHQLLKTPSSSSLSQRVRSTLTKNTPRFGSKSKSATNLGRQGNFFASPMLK
The experiment in a line: blockers of MgcRacGAP-driven Rac1 GTP hydrolysis – biochemical, ADP Hunter fluorescence, primary and confirmatory, confirmation (AID 624330). The experiment is classed as functional.

The target of a further experiment is fMet-Leu-Phe receptor (Homo sapiens, UniProt P21462). The experiment in a line: formyl peptide receptor binders – dose response (AID 519). The experiment is classed as functional.
The next experiment addresses Major prion protein (Homo sapiens, UniProt P04156). The experiment is classed as functional, cell-based.
Experiment [7] has as its target Endoplasmic reticulum aminopeptidase 1 (Homo sapiens, UniProt Q9NZ08). Kind of experiment: inhibition of human ERAP1 enzyme activity – biochemical, cherry-pick, set 2, plate reader, dose response (AID 743314).
Experiment [8] concerns HEK293. The experiment in a line: inhibition of NOD1-driven NF-kB reporter – cell-based, luminescence, uHTS, primary screen (AID 1578). The experiment is classed as functional. To be noted: Homo sapiens.
Experiment [9] concerns HEK293. The experiment in a line: cells. The experiment is classed as functional, cell-based. To be noted: Homo sapiens.
Experiment [10] relates to HEK293. The experiment in a line: cells. The experiment is classed as functional, cell-based. To be noted: Homo sapiens. The source holds these as a separate data set.
In experiment [11] the target is Nucleotide-binding oligomerization domain-containing protein 2 (Homo sapiens, UniProt Q9HC29). The experiment in a line: inhibition of NOD2-driven NF-kB reporter – cell-based, luminescence, uHTS, HEK293 (AID 1566). The experiment is classed as functional.
Experiment [12] deals with HEK293. The experiment in a line: NOD2 signaling inhibitors in MDP-stimulated cells, cell-based, uHTS, luminescence (AID 2001). The experiment is classed as functional. To be noted: Homo sapiens.
The nature of experiment [13]: Trypanosoma cruzi growth suppression in host cells – NIH3T3 host cells, beta-gal luminescence, confirmation (AID 2044).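 Further: intracellular parasites grown in NIH/3T3 mouse fibroblasts as host cells; luminescent beta-galactosidase reporter signal from transgenic T. cruzi replicating inside host cells; inhibitors lower the luminescence signal.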 The experiment is classed as functional, cell-based.
The test system of experiment [14] is HEK293. Kind of experiment: cells. To be noted: Homo sapiens. The experiment is classed as functional, cell-based. The source holds these as a separate data set.
Experiment [15] is described as follows: NIH3T3 cell viability loss – ATP luminescence, mouse fibroblasts, counter-screen, dose response (AID 2010).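 Further: cells exposed to compound for about 90 hours before reading.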 The experiment is classed as functional, cell-based.
A further experiment addresses T3, CAAX prenyl protease 2 (Saccharomyces cerevisiae S288c, UniProt Q03530).
T3 sequence (Q03530 whole entry): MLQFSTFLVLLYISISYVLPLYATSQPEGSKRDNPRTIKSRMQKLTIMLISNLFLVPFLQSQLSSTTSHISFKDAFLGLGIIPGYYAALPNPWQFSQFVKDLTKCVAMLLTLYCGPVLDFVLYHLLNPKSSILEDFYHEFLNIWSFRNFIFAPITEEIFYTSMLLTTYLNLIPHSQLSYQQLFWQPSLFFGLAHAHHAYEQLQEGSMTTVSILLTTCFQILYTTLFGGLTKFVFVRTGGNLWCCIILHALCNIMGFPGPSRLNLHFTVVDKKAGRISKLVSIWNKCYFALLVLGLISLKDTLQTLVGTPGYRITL
The experiment is classed as biochemical.

The subject of a further experiment is INS1. The experiment in a line: INS-1E survival protection against cytokine death – cell-based, luminescence, retest, dose response (AID 449756).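 Further: cell death triggered by IL-1 beta plus TNF-alpha plus IFN-gamma mixture; protective hits raise ATP signal compared with cytokine alone wells.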 The experiment is classed as functional. To be noted: Rattus norvegicus.
Experiment [16] is described as follows: reduction of Shn3 3'UTR-driven luciferase in osteoblasts – cell-based, Clone20 osteoblasts, firefly luciferase, cherry-picked, dose response (AID 624132).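 Further: firefly luciferase luminescence from reporter carrying the Shn3 3'UTR in osteoblasts.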 The experiment is classed as functional.
Experiment [17] addresses T4, Corticotropin-releasing factor receptor 2/Corticotropin-releasing factor-binding protein (Homo sapiens, UniProt P24387+Q13324).
T4 sequence (Q13324 whole entry): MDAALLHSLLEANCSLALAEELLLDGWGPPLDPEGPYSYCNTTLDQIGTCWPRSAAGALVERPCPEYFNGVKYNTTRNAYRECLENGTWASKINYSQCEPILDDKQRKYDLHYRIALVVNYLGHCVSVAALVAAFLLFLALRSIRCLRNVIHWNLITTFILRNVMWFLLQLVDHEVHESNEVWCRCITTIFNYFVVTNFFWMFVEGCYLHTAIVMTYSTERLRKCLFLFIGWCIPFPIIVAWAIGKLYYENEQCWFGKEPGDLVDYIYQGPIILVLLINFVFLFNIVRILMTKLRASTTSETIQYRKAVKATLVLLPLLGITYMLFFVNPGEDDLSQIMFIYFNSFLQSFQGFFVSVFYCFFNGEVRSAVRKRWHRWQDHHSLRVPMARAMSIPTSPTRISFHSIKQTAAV
T4 sequence (P24387 whole entry): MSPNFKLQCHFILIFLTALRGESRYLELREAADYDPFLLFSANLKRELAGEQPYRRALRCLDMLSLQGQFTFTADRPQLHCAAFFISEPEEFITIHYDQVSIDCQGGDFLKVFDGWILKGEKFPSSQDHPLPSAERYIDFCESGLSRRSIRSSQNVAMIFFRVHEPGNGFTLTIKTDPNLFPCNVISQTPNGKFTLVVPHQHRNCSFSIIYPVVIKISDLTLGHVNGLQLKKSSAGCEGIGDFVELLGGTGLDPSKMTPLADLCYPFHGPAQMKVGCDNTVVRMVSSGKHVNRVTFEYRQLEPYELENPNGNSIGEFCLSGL
Kind of experiment: activators of CRF receptor 2 with binding protein – uHTS hits, confirmation (AID 602473). The experiment is classed as functional. To be noted: read-out: EC50_Mean.

The target in a further experiment is Protein Wnt-3a (Mus musculus, UniProt P27467). Kind of experiment: antagonism of Wnt3a pathway luciferase reporter – Wnt-LIGHT cells, luminescence, selectivity assay for Gli-SUFU antagonist project, dose response (AID 651570).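 Further: Wnt-LIGHT reporter cells stimulated with conditioned medium from Wnt3a-producing cells.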 The experiment is classed as functional. To be noted: read-out: IC50_Mean.
A short description of experiment [18]: Shn3 transcript knock-down in Clone20 cells – cell-based, qPCR, cherry-pick, dose response (AID 743415). The experiment is classed as functional. For orientation: Real-time PCR tracks product formation cycle by cycle.
A short description of experiment [19]: Shn3 3'UTR reporter signal decrease – cell-based, Clone20 osteoblasts, firefly luciferase, cherry-pick, set 2, Schnurri-3 inhibitor project, dose response (AID 720490).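 Further: actives lower the luminescence signal as inhibitors.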 The experiment is classed as functional.

The source made the active and inactive calls. Where only a bound is given, the exact number is not on record here.

With `Oc1c(Cl)cc(Cl)cc1CNc1nc2ccccc2[nH]1`, in experiment [1], the AC50 is 0.587 µM (active). Moreover, the IC50 in experiment [2] was 0.488 µM (active); in [3] it was 83.3 µM (inactive); in experiment [4] it was 0.661 µM (active); in experiment [5], > 83.3 µM (inactive).
Turning to `CC(C)(C)CC(=O)Nc1ccc(Nc2ccccc2)cc1`, the IC50 in experiment [6] is 88.6 µM (active). The Ki at fMet-Leu-Phe receptor is > 66.7 µM (inactive).
`CCc1nc(SCC(=O)N2c3ccccc3Sc3ccccc32)c2ccccc2n1`: the IC50 was 1.84 µM (active) at Major prion protein and > 138 µM (inactive) in the experiment “cells”.
In the case of `CCc1cc(=O)oc2c(CN3CCN(C)CC3)c(O)ccc12`, the AC50 in [7] was 7.3 µM (active).
On to `COc1ccccc1N1CCN(c2ncc(C(=O)N3CCN(c4cccc(Cl)c4)CC3)c3ccccc23)CC1`, for which the EC50 in the experiment on HEK293 [8] was 4.31 µM (active); in experiment [11] it was 9.31 µM (active); in [13], 2.29 µM (active); in experiment [15], > 30 µM (not active); in [17], > 53 µM (inactive). Besides, the IC50 was 5.68 µM (active) with HEK293 [9]; > 20 µM (inactive) in the experiment on HEK293 [10]; 4.46 µM (active) in the experiment with HEK293 [12]; > 20 µM (inactive) in the experiment on HEK293 [14]; 1.47 µM (active) on Protein Wnt-3a. Moreover, the AC50 on CAAX prenyl protease 2 is 9.46 µM (active); with INS1 it was 3.93 µM (active); in experiment [16], 0.572 µM (active); in experiment [18], 30 µM (active); in [19], 1.81 µM (active).
